# Laboratory results reported in US20060276372A1, “Carotenoids, carotenoid analogs, or carotenoid derivatives for the treatment of proliferative disorders” (priority 2005, published 2006).
# Entries after “also recorded” stand apart in the source; their conditions may differ. Where a name gives a salt, the structure may show the parent alone. Read-outs that look alike come from different tables or passages of the source.
# How the values were obtained:
# [1] = target: human serum albumin (HSA) (Homo sapiens, UniProt P02768); assay: Plasma-protein binding studies in vitro
# human serum albumin (HSA), sequence (P02768 25-609): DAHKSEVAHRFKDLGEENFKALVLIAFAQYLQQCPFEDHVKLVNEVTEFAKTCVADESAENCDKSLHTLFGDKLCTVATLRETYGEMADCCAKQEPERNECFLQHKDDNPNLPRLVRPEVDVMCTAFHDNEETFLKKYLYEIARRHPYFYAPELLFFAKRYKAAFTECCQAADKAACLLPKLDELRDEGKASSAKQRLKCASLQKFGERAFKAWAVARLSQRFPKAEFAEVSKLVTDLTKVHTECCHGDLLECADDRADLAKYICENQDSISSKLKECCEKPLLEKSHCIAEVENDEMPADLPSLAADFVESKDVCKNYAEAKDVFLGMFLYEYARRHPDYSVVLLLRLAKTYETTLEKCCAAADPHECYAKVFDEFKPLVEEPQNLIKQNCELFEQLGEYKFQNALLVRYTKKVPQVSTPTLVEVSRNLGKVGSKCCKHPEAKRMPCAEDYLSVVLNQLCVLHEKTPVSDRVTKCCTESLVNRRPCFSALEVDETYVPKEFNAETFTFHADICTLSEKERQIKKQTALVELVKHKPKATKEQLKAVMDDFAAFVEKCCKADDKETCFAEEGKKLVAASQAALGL
# [2] = Oral administration, pharmacokinetics in mice; type: in vivo; settings: oral preparation in lipophilic emulsion, single and multiple dose, murine model
# [3] = cited from earlier work
# [4] = test system: superoxide anion; settings: mM concentrations, aqueous phase; cited from earlier work
# [5] = doses up to 75 mg/kg, rat; cited from earlier work
# [6] = 50 mg/kg, canines; cited from earlier work
# [7] = mice; cited from earlier work
# [8] = test system: CX43; settings: aqueous ethanolic formulation, carcinogen-promoted 10T1/2 cells; cited from earlier work
# [9] = test system: superoxide anion; assay: Direct superoxide anion scavenging by EPR spectroscopy (DEPMPO spin trap), PMA-stimulated isolated human PMNs; type: cell-based; settings: aqueous phase; statistical mixture and individual stereoisomers
# Experimental: Leukocyte Isolation and Preparation. Human polymorphonuclear leukocytes (PMNs) were isolated from freshly sampled venous blood of a single volunteer by Percoll density gradient centrifugation as described previously. Briefly, each 10 mL of whole blood was mixed with 0.8 mL of 0.1 M EDTA and 25 mL of saline. The diluted blood was then layered over 9 mL of Percoll at a specific density of 1.080 g/mL. After centrifugation at 400×g for 20 min at 20° C., the plasma, mononuclear cell, and Percoll layers were removed. Erythrocytes were subsequently lysed by addition of 18 mL of ice-cold water for 30 s, followed by 2 mL of 10×PIPES buffer (25 mM PIPES, 110 mM NaCl, and 5 mM KCl, titrated to pH 7.4 with NaOH). Cells were then pelleted at 4° C., the supernatant was decanted, and the procedure was repeated. After the second hypotonic cell lysis, cells were washed twice with PAG buffer [PIPES buffer containing 0.003% human serum albumin (HSA) and 0.1% glucose]. Afterward, PMNs were counted by light microscopy on a hemocytometer. The isolation yielded PMNs with a purity of >95%. The final pellet was then suspended in PAG-CM buffer (PAG buffer with 1 mM CaCl2 and 1 mM MgCl2).
# EPR Measurements. All EPR measurements were performed using a Bruker ER 300 EPR spectrometer operating at X-band with a TM110 cavity as previously described. The microwave frequency was measured with a Model 575 microwave counter (EIP Microwave, Inc., San Jose, Calif.). To measure superoxide anion (O2) generation from phorbol-ester (PMA)-stimulated PMNs, EPR spin-trapping studies were performed using the spin trap DEPMPO (Oxis, Portland, Oreg.) at 10 mM. 1×10^6 PMNs were stimulated with PMA (1 ng/mL) and loaded into capillary tubes for EPR measurements. To determine the radical scavenging ability of 3 and 9 in aqueous and ethanolic formulations, PMNs were pre-incubated for 5 minutes with test compound, followed by PMA stimulation.
# Instrument settings used in the spin-trapping experiments were as follows: modulation amplitude, 0.32 G; time constant, 0.16 s; scan time, 60 s; modulation frequency, 100 kHz; microwave power, 20 milliwatts; and microwave frequency, 9.76 GHz. The samples were placed in a quartz EPR flat cell, and spectra were recorded. The component signals in the spectra were identified and quantified as reported previously.
# [10] = Cardiac ischemia-reperfusion injury, experimental infarction model; type: in vivo, rat; settings: intravenous pretreatment, rodents, highest dose tested
compound,measurement,setting,value
"CC(C=CC=C(C)C=CC1=C(C)C(=O)C(OC(=O)CCC(=O)[O-])CC1(C)C)=CC=CC=C(C)C=CC=C(C)C=CC1=C(C)C(=O)C(OC(=O)CCC(=O)[O-])CC1(C)C.[Na+].[Na+] [meso-(3R,3′S)-disodium disuccinate astaxanthin]",binding to human serum albumin,[1],bound immediately and preferentially to human serum albumin (HSA) at a binding site
"CC1=C(/C=C/C(C)=C/C=C/C(C)=C/C=C/C=C(C)/C=C/C=C(C)/C=C/C2=C(C)C(=O)C(OC(=O)CCC(=O)O)CC2(C)C)C(C)(C)CC(OC(=O)CCC(=O)O)C1=O (racemic) [dAST, disodium salt disuccinate ester of astaxanthin]",plasma and tissue levels of nonesterified astaxanthin,[2],significant plasma and tissue levels of nonesterified astaxanthin were achieved
same,concentration of pseudo-solution in water,[3],up to 8 mg/ml; also recorded: approximately 10 mM
same,inhibition of the induced superoxide anion,[4],complete inhibition
same,protection against cardiac ischemia-reperfusion (I/R) injury,[5],significantly protect against cardiac ischemia-reperfusion (I/R) injury
same,protection against cardiac ischemia-reperfusion (I/R) injury,[6],significantly protect against cardiac ischemia-reperfusion (I/R) injury
same,absorption and tissue distribution after oral administration,[7],"rapid absorption of the compound, its cleavage to free astaxanthin, and accumulation in certain target tissues"
same,expression of CX43 and GJIC,[8],increased expression of the connexin protein CX43 and GJIC
"CC1=C(/C=C/C(C)=C/C=C/C(C)=C/C=C/C=C(C)/C=C/C=C(C)/C=C/C2=C(C)C(=O)C(OC(=O)CCC(=O)O)CC2(C)C)C(C)(C)CC(OC(=O)CCC(=O)O)C1=O (stereo not shown) [dAST, disodium salt disuccinate ester of astaxanthin]",direct scavenging of superoxide anion,[9],potent direct scavengers of superoxide anion in the aqueous phase
same,myocardial salvage,[10],up to 56%
